Measurements as given in patent US5753648A, “Tricyclic benzazepine vasopressin antagonists” (American Cyanamid Company, priority 1996, dated 1998).

Columns and labels:
[1] = biological target: T1, Rat Kidney Medullary V2 Receptors (Rattus norvegicus, UniProt Q00788); assay: biochemical; type: binding
T1 construct: Medullary tissues from rat kidneys are dissected out; from tissue; host or cells: rat kidney medulla membranes

[2] = biological target: T2, Vasopressin V1 receptor subtype in Human Platelet Membranes (Homo sapiens, UniProt P37288); assay: Binding to Vasopressin V1 receptor subtype in Human Platelet Membranes
T2 construct: Frozen platelet rich plasma (PRP), received from the Hudson Valley Blood Services, are thawed to room temperature; tissue Hudson Valley Blood Services; host or cells: human platelets (platelet rich plasma)
T2 sequence (P37288 whole entry): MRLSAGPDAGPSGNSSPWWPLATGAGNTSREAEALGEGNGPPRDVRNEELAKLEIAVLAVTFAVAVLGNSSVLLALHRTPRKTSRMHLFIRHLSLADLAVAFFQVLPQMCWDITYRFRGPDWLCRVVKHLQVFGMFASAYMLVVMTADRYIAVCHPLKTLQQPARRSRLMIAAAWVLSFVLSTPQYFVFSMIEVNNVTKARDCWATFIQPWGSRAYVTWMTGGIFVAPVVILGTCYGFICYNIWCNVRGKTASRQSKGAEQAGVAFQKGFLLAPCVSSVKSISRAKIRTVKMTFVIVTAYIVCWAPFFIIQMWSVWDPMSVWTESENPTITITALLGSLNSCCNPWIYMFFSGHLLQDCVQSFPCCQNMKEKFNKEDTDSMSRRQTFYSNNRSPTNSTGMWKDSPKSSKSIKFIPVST
Protocol: Radioligand Binding Experiments with Human Platelet Membranes
Platelet Source: Hudson Valley Blood Services,
Westchester Medical Center, Valhalla, N.Y.
Platelet Membrane Preparation
Frozen platelet rich plasma (PRP), received from the Hudson Valley Blood Services, are thawed to room temperature. The tubes containing the PRP are centrifuged at 16,000×g for 10 min. at 4° C. and the supernatant fluid discarded. The platelets resuspended in an equal volume of 50.0 mM Tris.HCl, pH 7.5 containing 120 mM NaCl and 20.0 mM EDTA. The suspension is recentrifuged at 16,000×g for 10 min. This washing step is repeated one more time. The wash discarded and the lysed pellets homogenized in low ionic strength buffer of Tris.HCl, 5.0 mM, pH 7.5 containing 5.0 mM EDTA. The homogenate is centrifuged at 39,000×g for 10 min. The resulting pellet is resuspended in Tris.HCl buffer, 70.0 mM, pH 7.5 and recentrifuged at 39,000×g for 10 min. The final pellet is resuspended in 50.0 mM Tris.HCl buffer pH 7.4 containing 120 mM NaCl and 5.0 mM KCl to give 1.0-2.0 mg protein per ml of suspension.
Binding to Vasopressin V1 receptor subtype in Human Platelet Membranes
In wells of 96 well format microtiter plate, add 100 μl of 50.0 mM Tris.HCl buffer containing 0.2% BSA and a mixture of protease inhibitors (aprotinin, leupeptin etc.). Then add 20 μl of [^3 H]Ligand (Manning or Arg^8 Vasopressin), to give final concentrations ranging from 0.01 to 10.0 nM. Initiate the binding by adding 80.0 μl of platelet suspension (approx. 100 μg protein). Mix all reagents by pipetting the mixture up and down a few times. Non specific binding is measured in the presence of 1.0 μM of unlabeled ligand (Manning or Arg^8 Vasopressin). Let the mixture stand undisturbed at room temperature for ninety (90) min. Upon this time, rapidly filter off the incubate under vacuum suction over GF/B filters, using a Brandel® Harvester. Determine the radioactivity caught on the filter disks by the addition of liquid scintillant and counting in a liquid scintillator.

oxytocin receptors = biological target: T3, oxytocin receptors (Rattus norvegicus, UniProt P70536); assay: Oxytocin Receptor Binding
T3 sequence (P70536 1-388): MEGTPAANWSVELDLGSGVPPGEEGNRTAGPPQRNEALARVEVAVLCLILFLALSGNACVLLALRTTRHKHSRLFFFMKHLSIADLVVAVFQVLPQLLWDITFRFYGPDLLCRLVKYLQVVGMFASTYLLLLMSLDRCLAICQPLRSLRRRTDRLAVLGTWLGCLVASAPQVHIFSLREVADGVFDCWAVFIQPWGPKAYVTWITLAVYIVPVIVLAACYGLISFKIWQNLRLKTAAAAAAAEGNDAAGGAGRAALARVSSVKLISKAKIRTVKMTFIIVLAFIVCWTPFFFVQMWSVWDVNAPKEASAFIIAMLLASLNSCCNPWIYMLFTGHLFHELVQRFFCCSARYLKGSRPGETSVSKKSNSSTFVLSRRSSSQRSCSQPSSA

[3] = biological target: T4, Human V2 Vasopressin Receptor (Homo sapiens, UniProt P30518); assay: Binding to Membranes of Mouse Fibroblast Cell Line (LV-2) Transfected with the cDNA Expressing the Human V2 Vasopressin Receptor; settings: for IC50: LV-2 cells transfected with human V2 receptor cDNA, Table 5, read-out: Vasopressin Binding Human V2 Receptor
T4 construct: expressed in transfected cells; host or cells: mouse fibroblast cell line LV-2
T4 sequence (P30518 whole entry): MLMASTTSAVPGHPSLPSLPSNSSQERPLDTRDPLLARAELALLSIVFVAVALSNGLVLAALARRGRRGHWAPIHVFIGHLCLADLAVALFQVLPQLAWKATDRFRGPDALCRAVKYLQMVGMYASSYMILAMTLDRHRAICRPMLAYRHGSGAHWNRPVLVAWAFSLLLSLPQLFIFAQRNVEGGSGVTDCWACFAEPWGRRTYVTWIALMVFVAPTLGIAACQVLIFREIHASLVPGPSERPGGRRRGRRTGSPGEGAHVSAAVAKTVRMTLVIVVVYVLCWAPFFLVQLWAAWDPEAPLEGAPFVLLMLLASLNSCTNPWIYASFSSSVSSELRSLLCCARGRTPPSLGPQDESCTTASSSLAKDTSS
Protocol: Binding to Membranes of Mouse Fibroblast Cell Line (LV-2) Transfected with the cDNA Expressing the Human V2 Vasopressin Receptor Membrane Preparation
Flasks of 175 ml capacity, containing attached cells grown to confluence, are cleared of culture medium by aspiration. The flasks containing the attached cells are rinsed with 2×5 ml of phosphate buffered saline (PBS) and the liquid aspirated off each time. Finally, 5 ml of an enzyme free dissociation Hank's based solution (Specialty Media, Inc., Lafayette, N.J.) is added and the flasks are left undisturbed for 2 min. The content of all flasks is poured into a centrifuge tube and the cells pelleted at 300×g for 15 min. The Hank's based solution is aspirated off and the cells homogenized with a polytron at setting #6 for 10 sec in 10.0 mM Tris.HCl buffer, pH 7.4 containing 0.25M sucrose and 1.0 mM EDTA. The homogenate is centrifuged at 1500×g for 10 min to remove ghost membranes. The supernatant fluid is centrifuged at 100,000×g for 60 min to pellet the receptor protein. Upon completion, the pellet is resuspended in a small volume of 50.0 mM Tris.HCl buffer, pH 7.4. The protein content is determined by the Lowry method and the receptor membranes are suspended in 50.0 mM Tris.HCl buffer containing 0.1 mM phenylmethylsulfonylfluoride (PMSF) and 0.2% bovine serum albumin (BSA) to give 2.5 mg receptor protein per ml of suspension.
For binding experiments, the following is added in μl volume to wells of a 96 well format of a microtiter plate: 100.0 μl of 100.0 mM Tris.HCl buffer containing 0.2% heat inactivated BSA, 10.0 mM MgCl2 and a mixture of protease inhibitors: leupeptin, 1.0 mg %; aprotinin, 1.0 mg %; 1,10-phenanthroline, 2.0 mg %; trypsin inhibitor, 10.0 mg % and 0.1 mM PMSF, 20.0 μl of [^3 H] Arginine^8, vasopressin (S.A. 75.0 Ci/mmole) at 0.8 nM and the reaction initiated by the addition of 80.0 μl of tissue membranes (200.0 μg tissue protein). The plates are left undisturbed on the bench top for 120 min to reach equilibrium. Non specific binding is assessed in the presence of 1.0 μm of unlabeled ligand, added in 20 μl volume. For test compounds, these are solubilized in 50% dimethylsulfoxide (DMSO) and added in 20.0 μl volume to a final incubation volume of 200 μl. Upon completion of binding, the content of each well is filtered off, using a Brandel® cell Harvester (Gaithersburg, Md.). The radioactivity trapped on the filter disk by the ligand-receptor complex is assessed by liquid scintillation counting in a Packard LS Counter, with an efficiency of 65% for tritium. The data are analyzed for IC50 values by the LUNDON-2 program for competition (LUNDON SOFTWARE, Ohio).

[4] = test system: Endogenous Arginine Vasopressin Antidiuretic (V2) Response in Conscious Rats; assay: Antagonism of Endogenous Arginine Vasopressin Antidiuretic (V2) Response in Conscious Rats (urine volume); type: in vivo, rat (Sprague-Dawley); settings: 10 mg/kg rat p.o.; 4 hour collection
From the text: Effects on the Antagonism of Endogenous Arginine Vasopressin Antidiuretic (V2) Response in Conscious Rats with Free Access to Water Drinking Before but not During the Experiment:
Male or female normotensive Sprague-Dawley rats (Charles River Laboratories, Inc., Kingston, N.Y.) of 400-450 g body weight were supplied with Laboratory Rodent Feed #5001 (PMI Feeds, Inc., Richmond, Id.) and water ad libitum. On the day of test, rats were placed individually into metabolic cages equipped with stainless steel screens (to separate the feces from the urine) and funnels for collection of urine. Vehicle or reference agent was given at various oral doses. During the test, rats were not provided with water or food. Urine was collected for four hours after dosing of the test compound. At the end of four hours, urine volume was measured. Urinary osmolality was determined using a Fiske One-Ten Osmometer (Fiske Associates, Norwood, Mass. 02062) or an Advanced CRYOMATIC Osmometer, Model 3C2 (Advanced Instruments, Norwood, Mass.). Determinations of Na^+, K^+ and Cl^- ion were carried out using ion specific electrodes in a Beckman SYNCHRON EL-ISE Electrolyte System analyzer. In the following results, increased urine volume and decreased osmolality relative to AVP-control indicates activity.

T1 sequence (Q00788 whole entry): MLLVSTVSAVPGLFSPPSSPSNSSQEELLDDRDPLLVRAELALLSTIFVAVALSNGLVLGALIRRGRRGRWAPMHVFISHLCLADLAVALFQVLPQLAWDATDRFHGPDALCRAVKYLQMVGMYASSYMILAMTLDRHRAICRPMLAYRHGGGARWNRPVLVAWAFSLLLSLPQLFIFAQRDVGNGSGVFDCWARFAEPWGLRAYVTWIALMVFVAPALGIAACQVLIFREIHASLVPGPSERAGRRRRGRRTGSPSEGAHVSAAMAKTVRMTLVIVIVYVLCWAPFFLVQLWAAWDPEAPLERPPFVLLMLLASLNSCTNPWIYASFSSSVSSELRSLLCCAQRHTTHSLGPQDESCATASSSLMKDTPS

Compound	inhibition at 10 µM (oxytocin receptors)	IC50 [3]	Urine Volume [4]	further results
COc1cc(C(=O)Nc2ccc(C(=O)N3Cc4cccn4Cc4ccccc43)cn2)cc(OC)c1OC [Example 5]	93%			inhibition at 10 µM ([2]; 1.5 h, * human platelet V1): 51%; inhibition at 10 µM ([3]; ** human V2, LV-2 cell membranes, at 10 μM): 47%
COc1cc(C(=O)Nc2ccc(C(=O)N3Cc4ccc(CN(C)C)n4Cc4ccccc43)cn2)cc(OC)c1OC [Example 133, N-[5-[[3-[(Dimethylamino)methyl]-[5H-pyrrolo[2,1-c][1,4]benzodiazepin-10(11H)]yl]carbonyl]-2-pyridinyl]-3,4,5-trimethoxybenzamide]	59%			inhibition at 10 µM ([1]; at 10 μM): 21%; inhibition at 10 µM ([2]; 1.5 h, * human platelet V1): 11%
CN(C)CCCNc1ncccc1C(=O)Nc1ccc(C(=O)N2Cc3cccn3Cc3ccccc32)cc1 [Example 335, N-[4-(5H-pyrrolo[2,1-c][1,4]benzodiazepin-10(11H)-ylcarbonyl)phenyl]-2-[(3-dimethylaminopropyl)amino]pyridine-3-carboxamide]				inhibition at 1 µM ([1]; at 1 μM): 60%; inhibition at 1 µM ([2]; 1.5 h, * human platelet V1, at 1 μM): 100%
CN(C)Cc1ccc2n1Cc1ccccc1N(C(=O)c1ccc(NC(=O)C3=C(c4ccccc4)CCC3)cc1Cl)C2 [Example 379, [3-Chloro-4-(3-dimethylaminomethyl-5H,11H-pyrrolo[2,1-c][1,4]benzodiazepine-10-carbonyl)-phenyl]-2-phenylcyclopent-1-enecarboxylic acid amide]		12.3 nM	18.9 ml/4 hrs	

More lines, main results first:

inhibition at 10 µM (oxytocin receptors)	IC50 [3]	Compound	Urine Volume [4]	further results
100%		Cc1c(F)cccc1C(=O)Nc1ccc(C(=O)N2Cc3cccn3Cc3ccccc32)cn1 [Example 4]		IC50 [1]: 1 nM; IC50 ([2]; * V1 receptor subtype in human platelet): 44 nM; IC50 (oxytocin receptors; rat uterine membranes, [3H]oxytocin): 670 nM
	4.5 nM	O=C(Nc1ccc(C(=O)N2Cc3cccn3Cc3ccccc32)c(Cl)c1)c1ccccc1-n1cccc1 [Example 377, N-[3-Chloro-4-(5H,11H-pyrrolo{2,1-c][1,4]benzodiazepine-10-carbonyl)-phenyl]-2-pyrrol-1-yl-benzamide]	13.2 ml/4 hrs	
	69.1 nM	O=C(Nc1ccc(C(=O)N2Cc3cccn3Cc3ccccc32)c(Cl)c1)c1cccc2cccnc12 [Example 378, Ouinoline-8-carboxylic acid [4-(5H,11H-pyrrolo[2,1-c][1,4]benzodiazepine-10-carbonyl)-3-phenyl]-amide]	11.7 ml/4 hrs	
